From ChEMBL document CHEMBL1201861, “Genomics of Drug Sensitity in Cancer screening data, Wellcome Trust Sanger Institute”

Each compound was assayed on HCT-15 (assay: cells). Conditions: Homo sapiens, HCT-15.
Type: functional, cell-based, Homo sapiens
Description: SANGER: Inhibition of human HCT-15 cell growth in a cell viability assay.
`COc1cccc2c1C(=O)c1c(O)c3c(c(O)c1C2=O)C[C@@](O)(C(=O)CO)C[C@@H]3O[C@H]1C[C@H](N)[C@H](O)[C@H](C)O1` [DOXORUBICIN] was tested, and the IC50 was over 1.02 µM.

The compounds below were run on NCI-H810 (assay: cells). Conditions: Homo sapiens, NCI-H810.
Type: functional, cell-based, Homo sapiens
Description: SANGER: Inhibition of human NCI-H810 cell growth in a cell viability assay.
In the case of `COc1cccc2c1C(=O)c1c(O)c3c(c(O)c1C2=O)C[C@@](O)(C(=O)CO)C[C@@H]3O[C@H]1C[C@H](N)[C@H](O)[C@H](C)O1` [DOXORUBICIN], the IC50 is reported as 0.0188 µM.

Each compound was assayed on AU565 (assay: cells). Conditions: Homo sapiens, AU565.
Type: functional, cell-based, Homo sapiens
Description: SANGER: Inhibition of human AU565 cell growth in a cell viability assay.
`COc1cccc2c1C(=O)c1c(O)c3c(c(O)c1C2=O)C[C@@](O)(C(=O)CO)C[C@@H]3O[C@H]1C[C@H](N)[C@H](O)[C@H](C)O1` [DOXORUBICIN] showed an IC50 of 0.105 µM.

The compounds below were run on BFTC-905 (assay: cells). Conditions: Homo sapiens, BFTC-905.
Type: functional, cell-based, Homo sapiens
Description: SANGER: Inhibition of human BFTC-905 cell growth in a cell viability assay.
In the case of `COc1cccc2c1C(=O)c1c(O)c3c(c(O)c1C2=O)C[C@@](O)(C(=O)CO)C[C@@H]3O[C@H]1C[C@H](N)[C@H](O)[C@H](C)O1` [DOXORUBICIN], the IC50 is reported as 0.0162 µM.

What follows are compounds tested on HT55 (assay: cells). Conditions: Homo sapiens, HT55.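 Also: cell viability readout measuring growth inhibition of human HT55 cells.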
Type: functional, cell-based, Homo sapiens
Description: SANGER: Inhibition of human HT55 cell growth in a cell viability assay.
`COc1cccc2c1C(=O)c1c(O)c3c(c(O)c1C2=O)C[C@@](O)(C(=O)CO)C[C@@H]3O[C@H]1C[C@H](N)[C@H](O)[C@H](C)O1` [DOXORUBICIN] gave an IC50 of over 1.02 µM.

These compounds were tested on NCI-H441 (assay: cells). Conditions: Homo sapiens, NCI-H441.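 Also: growth inhibition of NCI-H441 cells, read out with a cell viability assay.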
Type: functional, cell-based, Homo sapiens
Description: SANGER: Inhibition of human NCI-H441 cell growth in a cell viability assay.
For `COc1cccc2c1C(=O)c1c(O)c3c(c(O)c1C2=O)C[C@@](O)(C(=O)CO)C[C@@H]3O[C@H]1C[C@H](N)[C@H](O)[C@H](C)O1` [DOXORUBICIN], the IC50 was 0.0284 µM.

What follows are compounds tested on RPMI-7951 (assay: cells). Conditions: Homo sapiens, RPMI-7951.
Type: functional, cell-based, Homo sapiens
Description: SANGER: Inhibition of human RPMI-7951 cell growth in a cell viability assay.
Work on `COc1cccc2c1C(=O)c1c(O)c3c(c(O)c1C2=O)C[C@@](O)(C(=O)CO)C[C@@H]3O[C@H]1C[C@H](N)[C@H](O)[C@H](C)O1` [DOXORUBICIN] yielded an IC50 of 0.13 µM.

Each compound was assayed on NCI-H1792 (assay: cells). Conditions: Homo sapiens, NCI-H1792.
Type: functional, cell-based, Homo sapiens
Description: SANGER: Inhibition of human NCI-H1792 cell growth in a cell viability assay.
Compound `COc1cccc2c1C(=O)c1c(O)c3c(c(O)c1C2=O)C[C@@](O)(C(=O)CO)C[C@@H]3O[C@H]1C[C@H](N)[C@H](O)[C@H](C)O1` [DOXORUBICIN] has an IC50 of 0.572 µM.

What follows are compounds tested on HT-29 (assay: cells). Conditions: Homo sapiens, HT-29.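 Also: growth inhibition of human HT-29 cells, read out by a cell viability assay.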
Type: functional, cell-based, Homo sapiens
Description: SANGER: Inhibition of human HT-29 cell growth in a cell viability assay.
`COc1cccc2c1C(=O)c1c(O)c3c(c(O)c1C2=O)C[C@@](O)(C(=O)CO)C[C@@H]3O[C@H]1C[C@H](N)[C@H](O)[C@H](C)O1` [DOXORUBICIN] gave an IC50 of 0.0366 µM.

These compounds were tested on NCI-H2342 (assay: cells). Conditions: Homo sapiens, NCI-H2342.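 Also: growth inhibition of the cancer cell line, determined with a cell viability assay.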
Type: functional, cell-based, Homo sapiens
Description: SANGER: Inhibition of human NCI-H2342 cell growth in a cell viability assay.
With `COc1cccc2c1C(=O)c1c(O)c3c(c(O)c1C2=O)C[C@@](O)(C(=O)CO)C[C@@H]3O[C@H]1C[C@H](N)[C@H](O)[C@H](C)O1` [DOXORUBICIN] the IC50 was 0.0229 µM.

These compounds were tested on NCI-H1993 (assay: cells). Conditions: Homo sapiens, NCI-H1993.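 Also: growth inhibition of the cancer cell line, assessed with a cell viability assay.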
Type: functional, cell-based, Homo sapiens
Description: SANGER: Inhibition of human NCI-H1993 cell growth in a cell viability assay.
For `COc1cccc2c1C(=O)c1c(O)c3c(c(O)c1C2=O)C[C@@](O)(C(=O)CO)C[C@@H]3O[C@H]1C[C@H](N)[C@H](O)[C@H](C)O1` [DOXORUBICIN], the IC50 was 1 µM.

What follows are compounds tested on NCI-H1436 (assay: cells). Conditions: Homo sapiens, NCI-H1436.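 Also: growth suppression of human NCI-H1436 cells, determined with a cell viability readout.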
Type: functional, cell-based, Homo sapiens
Description: SANGER: Inhibition of human NCI-H1436 cell growth in a cell viability assay.
With `COc1cccc2c1C(=O)c1c(O)c3c(c(O)c1C2=O)C[C@@](O)(C(=O)CO)C[C@@H]3O[C@H]1C[C@H](N)[C@H](O)[C@H](C)O1` [DOXORUBICIN] the IC50 was over 1.02 µM.

These compounds were tested on HLE (assay: cells). Conditions: Homo sapiens, HLE.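 Also: growth inhibition of human HLE cells, read out by a cell viability assay.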
Type: functional, cell-based, Homo sapiens
Description: SANGER: Inhibition of human HLE cell growth in a cell viability assay.
Compound `COc1cccc2c1C(=O)c1c(O)c3c(c(O)c1C2=O)C[C@@](O)(C(=O)CO)C[C@@H]3O[C@H]1C[C@H](N)[C@H](O)[C@H](C)O1` [DOXORUBICIN] has an IC50 of 0.0358 µM.

What follows are compounds tested on SW1088 (assay: cells). Conditions: Homo sapiens, SW1088.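 Also: growth inhibition of human SW1088 cells, read out by a cell viability assay.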
Type: functional, cell-based, Homo sapiens
Description: SANGER: Inhibition of human SW1088 cell growth in a cell viability assay.
For `COc1cccc2c1C(=O)c1c(O)c3c(c(O)c1C2=O)C[C@@](O)(C(=O)CO)C[C@@H]3O[C@H]1C[C@H](N)[C@H](O)[C@H](C)O1` [DOXORUBICIN], the IC50 was over 1.02 µM.

These compounds were tested on UACC-62 (assay: cells). Conditions: Homo sapiens, UACC-62.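 Also: growth inhibition of human UACC-62 cells, read out by a cell viability assay.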
Type: functional, cell-based, Homo sapiens
Description: SANGER: Inhibition of human UACC-62 cell growth in a cell viability assay.
`COc1cccc2c1C(=O)c1c(O)c3c(c(O)c1C2=O)C[C@@](O)(C(=O)CO)C[C@@H]3O[C@H]1C[C@H](N)[C@H](O)[C@H](C)O1` [DOXORUBICIN] was tested, and the IC50 was over 1.02 µM.

What follows are compounds tested on CAMA-1 (assay: cells). Conditions: Homo sapiens, CAMA-1.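 Also: growth inhibition of CAMA-1 cells, read out with a cell viability assay.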
Type: functional, cell-based, Homo sapiens
Description: SANGER: Inhibition of human CAMA-1 cell growth in a cell viability assay.
Compound `COc1cccc2c1C(=O)c1c(O)c3c(c(O)c1C2=O)C[C@@](O)(C(=O)CO)C[C@@H]3O[C@H]1C[C@H](N)[C@H](O)[C@H](C)O1` [DOXORUBICIN] has an IC50 of 0.159 µM.

Each compound was assayed on SW948 (assay: cells). Conditions: Homo sapiens, SW948.
Type: functional, cell-based, Homo sapiens
Description: SANGER: Inhibition of human SW948 cell growth in a cell viability assay.
With `COc1cccc2c1C(=O)c1c(O)c3c(c(O)c1C2=O)C[C@@](O)(C(=O)CO)C[C@@H]3O[C@H]1C[C@H](N)[C@H](O)[C@H](C)O1` [DOXORUBICIN] the IC50 was over 1.02 µM.

What follows are compounds tested on NCI-H2122 (assay: cells). Conditions: Homo sapiens, NCI-H2122.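 Also: growth inhibition of the cells, read out with a cell viability assay.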
Type: functional, cell-based, Homo sapiens
Description: SANGER: Inhibition of human NCI-H2122 cell growth in a cell viability assay.
`COc1cccc2c1C(=O)c1c(O)c3c(c(O)c1C2=O)C[C@@](O)(C(=O)CO)C[C@@H]3O[C@H]1C[C@H](N)[C@H](O)[C@H](C)O1` [DOXORUBICIN] was tested, and the IC50 was 0.0379 µM.

What follows are compounds tested on SK-LU-1 (assay: cells). Conditions: Homo sapiens, SK-LU-1.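 Also: cell viability assay measuring growth inhibition of human SK-LU-1 cells.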
Type: functional, cell-based, Homo sapiens
Description: SANGER: Inhibition of human SK-LU-1 cell growth in a cell viability assay.
Compound `COc1cccc2c1C(=O)c1c(O)c3c(c(O)c1C2=O)C[C@@](O)(C(=O)CO)C[C@@H]3O[C@H]1C[C@H](N)[C@H](O)[C@H](C)O1` [DOXORUBICIN] has an IC50 of 0.0125 µM.

What follows are compounds tested on BC1 cell line (assay: SANGER: Inhibition of human BC-1 cell growth in a cell viability assay.). Conditions: Homo sapiens, BC1.
Type: functional, cell-based
Compound `COc1cccc2c1C(=O)c1c(O)c3c(c(O)c1C2=O)C[C@@](O)(C(=O)CO)C[C@@H]3O[C@H]1C[C@H](N)[C@H](O)[C@H](C)O1` [DOXORUBICIN] has an IC50 of 0.0868 µM.

The compounds below were run on Calu-3 (assay: cells). Conditions: Homo sapiens, Calu-3.
Type: functional, cell-based, Homo sapiens
Description: SANGER: Inhibition of human Calu-3 cell growth in a cell viability assay.
Compound `COc1cccc2c1C(=O)c1c(O)c3c(c(O)c1C2=O)C[C@@](O)(C(=O)CO)C[C@@H]3O[C@H]1C[C@H](N)[C@H](O)[C@H](C)O1` [DOXORUBICIN] has an IC50 of 0.056 µM.

What follows are compounds tested on NCI-H1694 (assay: cells). Conditions: Homo sapiens, NCI-H1694.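 Also: cell viability assay measuring inhibition of growth in human NCI-H1694 cells.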
Type: functional, cell-based, Homo sapiens
Description: SANGER: Inhibition of human NCI-H1694 cell growth in a cell viability assay.
`COc1cccc2c1C(=O)c1c(O)c3c(c(O)c1C2=O)C[C@@](O)(C(=O)CO)C[C@@H]3O[C@H]1C[C@H](N)[C@H](O)[C@H](C)O1` [DOXORUBICIN] was tested, and the IC50 was 0.2 µM.

These compounds were tested on JEG-3 (assay: cells). Conditions: Homo sapiens, JEG-3.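 Also: growth inhibition of human JEG-3 cells, read out with a cell viability assay.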
Type: functional, cell-based, Homo sapiens
Description: SANGER: Inhibition of human JEG-3 cell growth in a cell viability assay.
`COc1cccc2c1C(=O)c1c(O)c3c(c(O)c1C2=O)C[C@@](O)(C(=O)CO)C[C@@H]3O[C@H]1C[C@H](N)[C@H](O)[C@H](C)O1` [DOXORUBICIN] showed an IC50 of 0.0951 µM.
